Source: ChEMBL document CHEMBL1201862, “PubChem BioAssay data set” (2004)
Calls of active or inactive are those of the source.

What was measured:
[1] = NIH-3T3 fibroblast cytotoxicity, dose response, cytotoxicity control, cell-based, fluorescence, Alamar Blue, secondary assay (AID 2327); assay type: functional;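 also: NIH-3T3 mouse fibroblasts cultured with fluconazole at 8 µg/mL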
BJ [2] = assay: cytotoxicity toward BJ-TERT fibroblasts, dose response, cell-based, RAS-independent, luminescence (AID 1933); assay type: functional; conditions: Homo sapiens
BJ [3] = assay: cells; assay type: functional, cell-based; conditions: Homo sapiens
[4] = C. albicans growth with fluconazole, confirmation, fluorescence, retest (AID 2467); assay type: functional, cell-based
BJ [5] = assay: cytotoxicity toward BJ-TERT-LT-ST fibroblasts, dose response, cell-based, RAS-independent, luminescence (AID 1935); assay type: functional; conditions: Homo sapiens;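 also: BJ fibroblasts immortalized with TERT plus LT and ST oncogenes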
[6] = cytotoxicity toward DRD oncogenic fibroblasts, dose response, cell-based, non-viral oncogenic, luminescence (AID 1934); assay type: functional; conditions: Homo sapiens
Trypsin = Trypsin (Sus scrofa, UniProt P00761); assay: porcine trypsin inhibitors, dose response, selectivity assay for Rce1 protease inhibitor project, biochemical, quenched peptide fluorescence, cherry-pick (AID 488789)
[7] = cytotoxicity in HEK-293T cells, dose response, cytotoxicity control for TCR NF-kB inhibitor project, luminescence, T-cell screen hits (AID 489026); assay type: functional, cell-based;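 also: cells exposed to compound about 14 hours before the viability readout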
CAAX prenyl protease 1 = CAAX prenyl protease 1 (Saccharomyces cerevisiae S288c, UniProt P47154); assay: Ste24 protease inhibitors, dose response, biochemical, S. cerevisiae, plate reader, cherry-pick (AID 488815)
INS1 = assay: beta cell apoptosis inhibitors, cytokine rescue, dose response, luminescence, retest (AID 449756); assay type: functional, cell-based; conditions: Rattus norvegicus;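 also: cell death triggered by IL-1 beta plus TNF-alpha plus IFN-gamma mixture; protective hits raise ATP signal compared with cytokine alone wells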
CAAX prenyl protease 2 = CAAX prenyl protease 2 (Homo sapiens, UniProt Q9Y256); assay: human Rce1 protease inhibitors, dose response, biochemical, yeast membranes, quenched-peptide fluorescence, cherry-pick (AID 588849)
[8] = molecular target: T1, Delta-type opioid receptor (Homo sapiens, UniProt P41143); assay: HTS Image-Based Screen for Antagonists of the DOR Receptor. [Related pubchem assays (depositor defined):AID1777, AID1785, AID1786, AID2133]; assay type: functional
Mu-type opioid receptor = Mu-type opioid receptor (Homo sapiens, UniProt P35372); assay: HTS Image-Based Screen for Agonists of the MOR Receptor. [Related pubchem assays (depositor defined):AID1777, AID1785, AID1786, AID2133]; assay type: functional;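 also: imaging of beta-arrestin GFP recruitment into spots after receptor activation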
[9] = test system: Streptococcus sp. 'group A'; assay: growth inhibition of control SK(-) GAS strain, dose response, counter-screen for streptokinase expression inhibitor project, luminescence, kanamycin, BacTiterGlo, confirmation (AID 1900); assay type: functional, organism-based
[10] = molecular target: T1, Delta-type opioid receptor; assay: HTS Image-Based Screen for Agonists of the DOR Receptor. [Related pubchem assays (depositor defined):AID1777, AID1786, AID2133]; assay type: functional
Beta-galactosidase [11] = molecular target: T2, Beta-galactosidase (Escherichia coli, UniProt Q8VNN2); assay: PubChem AID 485352; assay type: functional
[12] = inhibitors of intracellular T. cruzi replication, confirmation, NIH3T3 host cells, beta-gal luminescence (AID 2044); assay type: functional, cell-based;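 also: intracellular parasites grown in NIH/3T3 mouse fibroblasts as host cells; luminescent beta-galactosidase reporter signal from transgenic T. cruzi replicating inside host cells; inhibitors lower the luminescence signal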
[13] = molecular target: Type-1 angiotensin II receptor (Homo sapiens, UniProt P30556); assay: AT1 receptor antagonists, dose response, selectivity assay for APJ receptor antagonist project, cell-based, uHTS hits (AID 463214); assay type: functional;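 also: antagonist potency against angiotensin II stimulated AT1 response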
[14] = molecular target: T3, Kappa-type opioid receptor (Homo sapiens, UniProt P41145); assay type: functional
[15] = cytotoxicity toward NIH3T3 fibroblasts, dose response, counter-screen, cell-based, ATP luminescence, mouse fibroblasts (AID 2010); assay type: functional;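 also: cells exposed to compound for about 90 hours before reading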
Beta-galactosidase [16] = molecular target: T2, Beta-galactosidase; assay type: functional
[17] = molecular target: T3, Kappa-type opioid receptor; assay type: functional; remark: listed apart in the source
Streptococcus = assay: Group A Streptococcus viability loss, dose response, counter-screen for streptokinase expression inhibitor project, luminescence, BacTiterGlo (AID 1915); assay type: functional, organism-based;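 also: potency for reduction of bacterial viability or growth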
[18] = THP-1 cell cytotoxicity, dose response, cytotoxicity control for non-replicating M. tuberculosis project (AID 489025); assay type: functional
[19] = HepG2 cell cytotoxicity, dose response, cytotoxicity control for non-replicating M. tuberculosis project (AID 489018); assay type: functional; conditions: Mycobacterium tuberculosis
[20] = Vero E6 cell cytotoxicity, dose response, cytotoxicity control for non-replicating M. tuberculosis project, secondary assay (AID 492998); assay type: functional, VeroE6; conditions: Vero C1008
cells = assay type: functional
DNA topoisomerase = DNA topoisomerase (Yersinia pestis, UniProt A0A2S9PM60); assay: Y. pestis Topo-I inhibitors, cleavage product readout, dose response, biochemical, cherry-pick (AID 588525)
[21] = molecular target: Beta-2 adrenergic receptor (Homo sapiens, UniProt P07550); assay: beta2AR agonists driving receptor internalization, dose response, cell-based, FAP fluorogen, flow cytometry, cherry pick 1 (AID 588763); assay type: functional
[22] = molecular target: Peroxisome proliferator-activated receptor gamma/Nuclear receptor coactivator 2 (Homo sapiens, UniProt P37231); assay type: functional;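 also: agonist potency for raising coactivator recruitment to the receptor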
[23] = molecular target: Peroxisome proliferator-activated receptor gamma/Nuclear receptor coactivator 1 (Homo sapiens, UniProt P37231); assay type: functional;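 also: agonist potency as compounds enhance coactivator SRC-1 recruitment to PPARgamma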
[24] = molecular target: Peroxisome proliferator-activated receptor gamma/Nuclear receptor coactivator 3 (Homo sapiens, UniProt P37231); assay type: functional;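 also: agonist potency for raising coactivator recruitment to the receptor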
[25] = molecular target: T4, Endoribonuclease toxin MazF (Escherichia coli K-12, UniProt P0AE70); assay: MazF toxin RNase activators, dose response, biochemical, fluorescence, single-stranded RNA substrate, uHTS hits (AID 588481); assay type: functional
[26] = molecular target: T4, Endoribonuclease toxin MazF; assay: fluorescent RNA oligo signal without MazF, dose response, counter-screen for MazEF activator project, biochemical, fluorescence, single-stranded RNase substrate (AID 588502); assay type: functional

T2 sequence (Q8VNN2 whole entry): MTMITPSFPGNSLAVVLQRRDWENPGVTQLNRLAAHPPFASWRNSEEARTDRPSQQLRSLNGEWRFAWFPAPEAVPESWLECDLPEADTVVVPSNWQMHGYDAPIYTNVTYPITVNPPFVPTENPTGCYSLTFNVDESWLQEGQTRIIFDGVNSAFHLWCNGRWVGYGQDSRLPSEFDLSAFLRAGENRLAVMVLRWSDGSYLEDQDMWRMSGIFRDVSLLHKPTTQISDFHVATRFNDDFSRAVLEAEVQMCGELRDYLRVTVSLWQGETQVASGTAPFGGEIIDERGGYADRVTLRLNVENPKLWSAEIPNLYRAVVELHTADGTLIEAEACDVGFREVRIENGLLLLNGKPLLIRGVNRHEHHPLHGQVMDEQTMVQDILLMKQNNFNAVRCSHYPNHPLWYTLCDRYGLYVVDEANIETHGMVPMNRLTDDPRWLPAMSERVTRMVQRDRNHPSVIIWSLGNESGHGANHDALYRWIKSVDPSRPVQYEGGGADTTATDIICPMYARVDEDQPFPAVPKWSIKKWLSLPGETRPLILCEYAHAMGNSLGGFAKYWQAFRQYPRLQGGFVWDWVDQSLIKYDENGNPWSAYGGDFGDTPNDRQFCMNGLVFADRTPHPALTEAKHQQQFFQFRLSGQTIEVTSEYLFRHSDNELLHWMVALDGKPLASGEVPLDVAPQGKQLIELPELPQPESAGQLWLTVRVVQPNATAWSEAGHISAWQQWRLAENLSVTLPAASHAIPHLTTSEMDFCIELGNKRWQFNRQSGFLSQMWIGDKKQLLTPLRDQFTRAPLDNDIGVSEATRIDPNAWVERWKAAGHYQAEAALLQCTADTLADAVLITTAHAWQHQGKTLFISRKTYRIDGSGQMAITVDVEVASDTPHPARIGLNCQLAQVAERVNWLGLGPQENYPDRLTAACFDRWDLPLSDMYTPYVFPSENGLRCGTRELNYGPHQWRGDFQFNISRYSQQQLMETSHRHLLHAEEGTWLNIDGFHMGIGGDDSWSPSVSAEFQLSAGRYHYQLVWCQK
T3 sequence (P41145 whole entry): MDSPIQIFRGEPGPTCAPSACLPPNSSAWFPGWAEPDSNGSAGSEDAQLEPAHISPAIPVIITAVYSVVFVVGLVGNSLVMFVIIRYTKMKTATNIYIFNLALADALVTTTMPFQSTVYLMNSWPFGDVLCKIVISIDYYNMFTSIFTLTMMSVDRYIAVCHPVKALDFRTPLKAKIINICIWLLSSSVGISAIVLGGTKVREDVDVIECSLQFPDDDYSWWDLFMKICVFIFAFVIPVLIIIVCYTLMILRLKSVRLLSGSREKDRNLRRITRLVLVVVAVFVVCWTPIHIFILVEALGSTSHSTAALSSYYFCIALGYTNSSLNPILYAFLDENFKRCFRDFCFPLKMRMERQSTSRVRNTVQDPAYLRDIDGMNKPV
T1 sequence (P41143 whole entry): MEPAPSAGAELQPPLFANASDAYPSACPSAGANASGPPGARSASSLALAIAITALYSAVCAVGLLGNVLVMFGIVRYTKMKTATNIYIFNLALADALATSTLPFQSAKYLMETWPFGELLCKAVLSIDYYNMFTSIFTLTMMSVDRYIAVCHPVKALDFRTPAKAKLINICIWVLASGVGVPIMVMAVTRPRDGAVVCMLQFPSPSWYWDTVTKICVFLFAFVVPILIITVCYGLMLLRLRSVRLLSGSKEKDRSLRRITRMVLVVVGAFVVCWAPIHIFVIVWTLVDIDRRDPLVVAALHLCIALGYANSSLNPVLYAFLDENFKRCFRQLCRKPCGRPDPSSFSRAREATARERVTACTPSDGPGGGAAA
T4 sequence (P0AE70 whole entry): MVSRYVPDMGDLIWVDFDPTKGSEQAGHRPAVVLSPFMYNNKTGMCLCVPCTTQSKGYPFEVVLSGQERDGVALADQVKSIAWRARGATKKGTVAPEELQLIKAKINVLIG
Chain of CAAX prenyl protease 1 (P47154 whole entry): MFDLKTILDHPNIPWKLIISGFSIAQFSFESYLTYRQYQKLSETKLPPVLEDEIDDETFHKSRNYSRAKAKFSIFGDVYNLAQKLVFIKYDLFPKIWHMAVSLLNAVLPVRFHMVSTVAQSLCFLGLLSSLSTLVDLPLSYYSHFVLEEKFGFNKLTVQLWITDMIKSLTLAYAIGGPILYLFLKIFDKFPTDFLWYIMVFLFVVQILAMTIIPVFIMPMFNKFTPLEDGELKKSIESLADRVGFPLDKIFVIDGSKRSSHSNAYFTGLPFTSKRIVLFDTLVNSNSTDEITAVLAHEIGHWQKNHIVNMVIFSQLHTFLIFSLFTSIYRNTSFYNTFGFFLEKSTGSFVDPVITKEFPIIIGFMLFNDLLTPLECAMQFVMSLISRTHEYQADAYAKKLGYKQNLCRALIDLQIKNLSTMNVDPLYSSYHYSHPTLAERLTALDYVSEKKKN
Chain of Mu-type opioid receptor (P35372 whole entry): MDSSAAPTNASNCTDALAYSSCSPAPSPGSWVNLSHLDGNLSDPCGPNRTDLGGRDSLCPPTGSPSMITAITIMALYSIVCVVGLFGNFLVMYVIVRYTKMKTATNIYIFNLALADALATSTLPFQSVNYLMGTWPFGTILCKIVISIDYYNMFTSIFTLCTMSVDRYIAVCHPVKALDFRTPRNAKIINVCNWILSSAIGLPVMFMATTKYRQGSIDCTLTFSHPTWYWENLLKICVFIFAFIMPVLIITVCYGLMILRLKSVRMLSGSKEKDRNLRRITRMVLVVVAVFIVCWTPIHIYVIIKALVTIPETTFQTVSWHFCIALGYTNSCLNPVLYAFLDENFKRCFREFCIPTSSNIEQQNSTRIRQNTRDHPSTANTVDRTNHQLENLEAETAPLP
Chain of Peroxisome proliferator-activated receptor gamma/Nuclear receptor coactivator 3 (P37231 whole entry): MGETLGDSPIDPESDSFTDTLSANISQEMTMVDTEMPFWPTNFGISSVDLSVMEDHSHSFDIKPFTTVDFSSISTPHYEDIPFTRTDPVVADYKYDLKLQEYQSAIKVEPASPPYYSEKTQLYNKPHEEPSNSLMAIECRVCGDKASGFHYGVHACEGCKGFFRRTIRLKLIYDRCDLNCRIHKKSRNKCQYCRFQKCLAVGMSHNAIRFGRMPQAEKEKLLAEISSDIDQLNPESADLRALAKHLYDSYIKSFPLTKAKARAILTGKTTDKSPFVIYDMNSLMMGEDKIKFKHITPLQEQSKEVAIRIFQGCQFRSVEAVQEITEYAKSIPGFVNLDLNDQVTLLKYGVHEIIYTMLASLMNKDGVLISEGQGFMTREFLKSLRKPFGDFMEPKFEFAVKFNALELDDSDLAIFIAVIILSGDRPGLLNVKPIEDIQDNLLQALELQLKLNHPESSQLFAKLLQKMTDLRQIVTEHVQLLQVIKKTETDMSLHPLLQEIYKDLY
Chain of Peroxisome proliferator-activated receptor gamma/Nuclear receptor coactivator 3 (Q9Y6Q9 whole entry, further chain): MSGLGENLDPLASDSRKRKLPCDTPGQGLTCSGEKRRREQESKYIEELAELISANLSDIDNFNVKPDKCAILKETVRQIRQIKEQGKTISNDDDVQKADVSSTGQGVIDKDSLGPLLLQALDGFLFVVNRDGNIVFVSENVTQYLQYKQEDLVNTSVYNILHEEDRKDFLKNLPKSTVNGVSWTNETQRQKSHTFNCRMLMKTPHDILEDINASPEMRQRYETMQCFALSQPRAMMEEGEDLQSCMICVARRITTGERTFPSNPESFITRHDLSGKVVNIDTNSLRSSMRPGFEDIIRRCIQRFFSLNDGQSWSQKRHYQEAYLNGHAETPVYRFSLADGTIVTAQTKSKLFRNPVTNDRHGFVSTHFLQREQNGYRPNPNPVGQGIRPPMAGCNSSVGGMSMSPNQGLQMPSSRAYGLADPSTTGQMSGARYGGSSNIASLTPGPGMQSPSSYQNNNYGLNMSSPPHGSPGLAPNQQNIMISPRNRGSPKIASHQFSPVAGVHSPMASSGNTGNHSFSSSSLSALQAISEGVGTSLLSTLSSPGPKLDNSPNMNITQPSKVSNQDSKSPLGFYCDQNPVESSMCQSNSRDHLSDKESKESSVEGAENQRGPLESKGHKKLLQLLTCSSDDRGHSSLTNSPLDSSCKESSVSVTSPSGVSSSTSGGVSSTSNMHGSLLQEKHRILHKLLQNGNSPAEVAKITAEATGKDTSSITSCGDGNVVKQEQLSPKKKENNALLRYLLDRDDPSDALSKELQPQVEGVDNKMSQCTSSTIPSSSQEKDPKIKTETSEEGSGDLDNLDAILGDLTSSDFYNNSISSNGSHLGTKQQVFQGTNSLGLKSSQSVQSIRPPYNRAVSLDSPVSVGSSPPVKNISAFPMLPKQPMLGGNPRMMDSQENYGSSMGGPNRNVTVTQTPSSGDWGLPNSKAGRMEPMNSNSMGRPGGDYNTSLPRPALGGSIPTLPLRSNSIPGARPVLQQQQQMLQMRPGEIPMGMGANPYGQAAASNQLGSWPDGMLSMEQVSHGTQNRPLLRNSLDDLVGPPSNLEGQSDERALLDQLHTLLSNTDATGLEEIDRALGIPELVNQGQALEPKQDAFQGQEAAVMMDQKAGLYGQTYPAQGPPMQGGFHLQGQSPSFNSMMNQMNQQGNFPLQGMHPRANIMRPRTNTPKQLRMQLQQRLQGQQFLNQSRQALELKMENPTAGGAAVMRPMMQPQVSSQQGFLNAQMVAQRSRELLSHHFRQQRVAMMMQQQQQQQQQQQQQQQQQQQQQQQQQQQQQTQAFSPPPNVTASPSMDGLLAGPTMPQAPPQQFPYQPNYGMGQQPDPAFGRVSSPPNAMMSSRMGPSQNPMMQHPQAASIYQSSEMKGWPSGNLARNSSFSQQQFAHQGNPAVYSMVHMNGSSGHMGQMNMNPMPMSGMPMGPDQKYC
Chain of Trypsin (P00761 whole entry): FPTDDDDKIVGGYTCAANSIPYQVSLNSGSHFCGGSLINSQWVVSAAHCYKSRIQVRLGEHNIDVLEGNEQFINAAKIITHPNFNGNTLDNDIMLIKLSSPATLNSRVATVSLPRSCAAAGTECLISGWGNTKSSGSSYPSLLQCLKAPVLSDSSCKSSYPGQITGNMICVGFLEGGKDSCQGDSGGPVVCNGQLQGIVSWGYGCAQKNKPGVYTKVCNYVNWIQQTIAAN

Cc1ccc(-c2cc(-c3ccc(C)cc3)[n+](-c3ccccc3)c(-c3ccc(C)cc3)c2)cc1.[O-][Cl+3]([O-])([O-])[O-]
EC50 [1]: 18.4 µM (inconclusive) | EC50 (BJ [2]): 0.689 µM (active) | EC50 (BJ [3]): 2.12 µM (active) | EC50 [4]: 0.178 µM (active) | EC50 (BJ [5]): 1.33 µM (inconclusive) | EC50 [6]: 1.05 µM (active) | AC50 (Trypsin): 23.8 µM (active) | IC50 [7]: 20.3 µM (inactive) | AC50 (CAAX prenyl protease 1): 13.7 µM (active) | AC50 (INS1): 0.382 µM (active) | AC50 (CAAX prenyl protease 2): 20.7 µM (active)

Cc1[nH]c2ccccc2c1/C=C1\SC(=N)N(c2nccs2)C1=O
IC50 [8]: 23.4 µM (inactive) | EC50 (Mu-type opioid receptor): > 32 µM (inactive) | EC50 [9]: 0.198 µM (active) | EC50 [10]: > 32 µM (inactive) | EC50 (Beta-galactosidase [11]): > 40 µM (inactive) | EC50 [12]: 1.17 µM (active) | IC50 [13]: 14.8 µM (active) | IC50 [14]: 6.76 µM (active) | EC50 [15]: 5.8 µM (active) | EC50 (Beta-galactosidase [16]): > 31.5 µM (inactive) | IC50 [17]: 18.1 µM | EC50 (Streptococcus): 1.08 µM (active) | CC50 [18]: 10.1 µM (active) | CC50 [19]: 8.83 µM (active) | CC50 [20]: 5.16 µM (active) | IC50 (cells): < 0.1 µM (active)

Cc1ccc(SCc2cc(O)nc(Nc3nc(C)c4ccc(C)cc4n3)n2)cc1
AC50 (DNA topoisomerase): 2.96 µM (active)

CN(C)c1ccc(-c2noc(C3CCN(S(=O)(=O)c4cccc(Cl)c4)CC3)n2)cc1
EC50 [21]: 1.23 µM (active)

N#Cc1ccc(-c2ccccc2)nc1SCC(=O)c1cc2ccccc2oc1=O
EC50 [22]: 13.7 µM (not active) | EC50 [23]: 15.5 µM (not active) | EC50 [9]: 0.862 µM (active) | EC50 [24]: 16.4 µM (not active) | EC50 (Streptococcus): 2.22 µM (active) | EC50 [25]: > 99 µM (inactive) | EC50 [26]: > 99 µM (inactive)
